Data taken from US8999984B2, “Macrophage migration inhibitory factor antagonists and methods of using same” (University of Louisville Research Foundation, Inc., priority 2006, dated 2015).

Assays:
recombinant MIF (rMIF) = target: T1, recombinant MIF (rMIF) (Homo sapiens, UniProt P14174); assay: L-dopachrome methyl ester tautomerase assay; type: biochemical; conditions: 500 nM rMIF pre-mixed 5 or 10 min with inhibitor, 2 mM L-dopachrome methyl ester; FIG. 8; read-out: IC50, MIF enzyme (tautomerase) inhibition
T1 construct: made in house
T1 sequence (P14174 2-115 limits assumed): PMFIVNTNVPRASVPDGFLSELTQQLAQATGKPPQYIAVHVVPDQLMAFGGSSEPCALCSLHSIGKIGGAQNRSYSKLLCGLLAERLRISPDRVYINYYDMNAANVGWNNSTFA
Experimental: 500 nM recombinant MIF (rMIF) was pre-mixed for either 5 (filled) or 10 (open) minutes with the indicated inhibitor concentrations followed by the addition of 2 mM final concentration of L-dopachrome methyl ester substrate. 5 minutes later OD 475 was measured spectrophotometrically, with tautomerization leading to colorless substrate.
In FIG. 10A, 500 nM rMIF was pre-mixed for 30 seconds with the indicated inhibitor concentrations followed by the addition of 2 mM final concentration of L-dopachrome methyl ester substrate. 5 minutes later OD 475 was measured spectrophotometrically (tautomerization leads to colorless substrate) and resulting data graphed.
Dopachrome tautomerase assay. […] MIF catalysis and inhibitory studies can be performed as described (Lubetsky et al., 2002). […] Activity can be determined at room temperature by adding dopachrome methyl ester (0.3 ml) to a cuvette containing 500 nM rMIF (Bernhagen et al., 1994) in 50 mM potassium phosphate buffer, pH 6, 0.5 mM EDTA and 5 minutes later measuring the decrease in absorbance at 475 nm spectrophotometrically. […] Additionally, candidate inhibitors identified in the last section of the present Example can be dissolved in DMSO at various concentrations and added to the cuvette (final concentration of DMSO will be no more than 0.1%) with the MIF 1 minute prior to the addition of the dopachrome substrate.

HIF-1α [1] = assay: CoCl2-induced HIF-1α stabilization in MIA-PaCa pancreatic adenocarcinoma cells (nuclear lysate immunoblot); type: cell-based, human
Experimental: FIGS. 9A-9C are pictures of immunoblots showing MIF tautomerase inhibitors block HIF-1 stabilization in an MIF-specific manner. […] After 5 hours, nuclear lysates were isolated and subjected to immunoblotting for HIF-1. In FIGS. 9A and 9B, MIA-PaCa pancreatic adenocarcinoma cells were used. In FIG. 9C, MIF+/+ and MIF−/− mouse embryonic fibroblasts were evaluated.
As noted hereinabove, (see FIG. 4), it has been determined that MIF is necessary for hypoxia and prolyl hydroxylase inhibitor-induced HIF-1αstabilization and subsequent hypoxic adaptation of pancreatic adenocarcinoma cells. It was next tested whether MIF pharmacologic inhibitors were capable of recapitulating the destabilizing effects on HIF-1α we had observed using MIF siRNA (FIG. 4). In addition to testing the newly-determined MIF antagonist 4-iodo-6-phenylpyrimidine (also referred to as “compound #16”), the TI compound identified in the Orita screen (FIG. 8) was also tested.

VEGF = assay: CoCl2-induced VEGF expression and secretion (ELISA); type: cell-based; conditions: read-out: suppression of PHD inhibitor (CoCl2) induced VEGF
Text: It was next tested whether the observed differences in the catalytic inhibitory activities between these two compounds was similarly observed in this biological assay of MIF inhibition. […] Of note, this ˜5 fold difference in biological inhibitory activity closely corresponds to the ˜5 fold difference in enzymatic inhibitory activity that was observed when comparing these two compounds (FIG. 8).

[2] = test system: A549 human lung adenocarcinoma cells; assay: A549 anchorage-independent growth in soft agar; type: cell-based; conditions: FIG. 11
Experimental: FIG. 11 is a graph showing inhibitors of MIF prevent anchorage-independent growth. 10^5 A549 human lung adenocarcinoma cells were plated in soft agar, containing vehicle (0.1% DMSO) or 10, 50 or 100 μM ISO-1 or 4-iodo-6-phenylpyrimidine (CMPD 16). 20 days later, colonies were stained and enumerated. Data are representative of two independent experiments.

[3] = test system: A549 human lung adenocarcinoma cells; assay: A549 NSCLC xenograft tumor outgrowth; type: in vivo, Balb/c (nu/nu) mice; conditions: 2 mg intraperitoneally every day; vehicle mice developed lesions beginning at day 16; FIG. 12
Experimental: FIG. 12 is a graph showing Inhibition of NSCLC tumor growth by the MIF inhibitor 4-iodo-6-phenylpyrimidine. Balb/c (nu/nu mice were injected with 1×10^6 A549 human lung adenocarcinoma cells subcutaneously (4 mice/group). Vehicle or 4-iodo-6-phenylpyrimidine (Cmpd 16; 2 mg) were injected intraperitoneally every day for the course of the study. Tumor growth was monitored by palpation every fourth day as indicated. Results are expressed as percent of tumor free mice/group.
In a study designed to evaluate the in vivo efficacy of anti-MIF compounds, 4-iodo-6-phenylpyrimidine (compound #16) was tested in a xenograft model of human non-small cell lung cancer (NSCLC) outgrowth.

[4] = MTD / toxicity study, daily injections for 7 days; type: in vivo; conditions: daily injections for 7 days of 0.5, 1, 2 and 4 mg (25, 50, 100 and 200 mg/kg)
Text: (§1) A study to determine the MTD and in vivo inhibitory activity of compound #16 was also completed. […] In vivo enzyme inhibition by compound #16 was next analyzed. […] Further, the discovery of the present MIF inhibitory compounds of Formula I disclosed herein by the present novel virtual screening and systematic testing methods validates the present approach and experimental design to identify further MIF small molecule inhibitors.

endogenous liver MIF = target: T2, endogenous liver MIF (Mus musculus, UniProt P34884); assay: In vivo inhibition of liver MIF tautomerase activity; set-up: species or system C57BI/6 mice; conditions: single bolus injection 50 mg/kg, 6 hours post-injection, FIG. 13, read-out: inhibition of endogenous liver MIF enzyme tautomerase activity
T2 construct: from tissue; host or cells: mouse liver homogenate
Experimental: FIG. 13 is a graph showing the MIF inhibitor 4-iodo-6-phenyl pyrimidine inhibits MIF in vivo. C57BI/6 mice were injected with corn oil or 1 mg 4-iodo-6-phenyl pyrimidine (# 16) suspended in corn oil for 6 hours before removal of the livers. After homogenizing tissue, […] total liver protein was assessed for L-dopachrome methyl ester tautomerase activity.
as §1

HIF-1α [5] = assay: Total HIF-1α ELISA, CoCl2-induced HIF stabilization; type: cell-based; conditions: Homo sapiens, compound #16 at 50 μM, read-out: inhibition of CoCl2-induced HIF stabilization, of control
Text: Screening of HIF-1α de-stabilization by candidate MIF inhibitors. The presently disclosed discovery that MIF plays a central role in HIF stability was from studies done in pancreatic adenocarcinoma cell lines. […] This cell line can be utilized for large scale testing of candidate MIF antagonists. In order to scale up this in vitro screen, a DuoSet ELISA-based assay to detect total HIF-1α in human cell lysates can be utilized (R & D Systems). […] MIA-Paca-2 cells can be plated at 5×10^5 cells/well in 24 well plates for 16 hours. Media can be replaced with fresh media containing 0.1% DMSO (− control), 50 μM #16 (+ control) and 5, 50 μM concentrations of test inhibitor, all in duplicate wells. After 1 hour, cells can be challenged with 150 μM CoCl2 for an additional 6 hours. After rinsing the cells twice with PBS, supplied kit lysis buffer can be used to lyse the cells following manufacturer's directions. Prior coating and blocking of HIF-1α capture antibody can be performed according to instructions and diluted cell lysates can be assayed on the HIF-1α ELISA plates.

Ic1cc(-c2ccccc2)ncn1 [compound #16, 4-iodo-6-phenylpyrimidine]
IC50 (recombinant MIF (rMIF)): ~5 µM
suppression of HIF-1α, of control (HIF-1α [1]; 10 μM, FIG. 9B): ~50%
inhibition of CoCl2-induced HIF-1α stabilization (HIF-1α [1]; 100 μM, pancreatic carcinoma cells, FIG. 9A): completely inhibited
difference in biological inhibitory activity (HIF-1α) between #16 and TI (HIF-1α [1]; 4-iodo-6-phenylpyrimidine versus TI): ~5 fold
inhibition at 50 µM (VEGF): > 80%
inhibition of A549 soft agar growth ([2]; 10, 50 or 100 μM, 20 days): inhibit A549 soft agar growth
potency relative to ISO-1, soft agar growth [2]: 5-10 fold
tumor outgrowth (tumor free mice) [3]: remained tumor free
toxicity [4]: no apparent toxicity
inhibition at 50 mg/kg (endogenous liver MIF): > 50%
inhibition at 50 µM (HIF-1α [5]): 75 to 90%
